Test results: publication PMC11477000, “Enantioselective Binding of Proton Pump Inhibitors to Alpha1-Acid Glycoprotein and Human Serum Albumin—A Chromatographic, Spectroscopic, and In Silico Study” (International Journal of Molecular Sciences, 2024)

Key:
[1] = test system: α1-acid glycoprotein (AGP); assay: HPLC on AGP-based chiral stationary phase (ChromTech Chiral-AGP column); assay type: binding, human; conditions: 10 mM pH 7 phosphate buffer, 25 °C
Experimental: HPLC using a protein-based chiral stationary phase is a fully automated method for obtaining rapid information about the binding of compounds to the respective proteins. Enantioseparation occurs in the case of unequal binding constants of the individual enantiomers to the immobilized proteins, thus allowing enantioselective binding to be characterized even when a racemic mixture was injected. As a preliminary step, the enantiospecific binding was investigated on columns containing AGP and HSA in various alcohol:buffer mixtures. A pH 7 phosphate buffer was employed as the aqueous part of the mobile phase, while for the organic part, three different alcohols were evaluated. […]
(§1) Chromatographic measurements were carried out on two separate HPLC systems. The AGP binding study was performed on a Waters 2695e chromatographic system paired with a Waters 2996 PDA detector, controlled by Empower 3 FR5 (Waters Corp., Milford, MA, USA), while the HSA binding study was performed on an Agilent 1100 HPLC system, consisting of an inline degasser (G1322A), a quaternary pump (G1311A), an automatic injector (G1329A) paired with sample thermostat (G1330A), a column thermostat (G1316A), and a diode array detector (G1315A) with Agilent Chemstation B04.03-SP2 software (Agilent, Bronnwald, Germany). For the binding studies, two protein-based chiral stationary phases were utilized. The chromatographic binding study for AGP was conducted on a ChromTech Chiral-AGP column (150 mm × 4.0 mm; ChromTech Ltd., Congleton, UK), while the binding study for HSA was performed on a Daicel Chiralpak HSA column (50 mm × 4.0 mm; Daicel Corp., Osaka, Japan). The detection wavelength was 210 nm for all measurements. The stock solutions of PPIs were prepared at a concentration of 1 mg/mL in MeOH. Subsequent dilutions were prepared using water. The injected samples were mixed and diluted from the stock solutions. The final concentration for the eutomer was 0.2 mg/mL, and for the distomer, it was 0.1 mg/mL. A volume of 2 μL was injected. To mitigate the instability of PPIs in aqueous solutions, the samples were kept at a temperature of 4 °C.

[2] = target: T1, human serum albumin (HSA) (Homo sapiens, UniProt P02768); assay: HPLC on HSA-based chiral stationary phase (Daicel Chiralpak HSA column); assay type: binding; conditions: for k1 retention factor (first-eluting enantiomer) / k2 retention factor (second-eluting enantiomer): HSA column, 10 mM pH 7 phosphate buffer, 25 °C
T1 sequence (P02768 25-609): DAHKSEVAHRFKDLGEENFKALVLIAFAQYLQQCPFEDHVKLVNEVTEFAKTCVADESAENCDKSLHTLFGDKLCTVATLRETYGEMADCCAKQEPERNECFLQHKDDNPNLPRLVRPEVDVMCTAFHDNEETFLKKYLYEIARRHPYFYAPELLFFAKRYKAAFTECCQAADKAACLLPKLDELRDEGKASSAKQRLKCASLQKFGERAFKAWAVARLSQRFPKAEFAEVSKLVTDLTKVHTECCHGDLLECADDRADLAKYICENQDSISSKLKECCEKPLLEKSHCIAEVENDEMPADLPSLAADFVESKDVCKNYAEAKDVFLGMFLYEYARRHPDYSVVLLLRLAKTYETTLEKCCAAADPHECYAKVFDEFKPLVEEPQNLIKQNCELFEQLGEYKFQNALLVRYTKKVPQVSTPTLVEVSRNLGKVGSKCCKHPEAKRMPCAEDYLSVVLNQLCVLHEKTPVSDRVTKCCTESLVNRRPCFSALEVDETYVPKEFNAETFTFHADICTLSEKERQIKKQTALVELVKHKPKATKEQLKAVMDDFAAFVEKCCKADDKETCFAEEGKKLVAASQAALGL
Experimental: HPLC using a protein-based chiral stationary phase is a fully automated method for obtaining rapid information about the binding of compounds to the respective proteins. Enantioseparation occurs in the case of unequal binding constants of the individual enantiomers to the immobilized proteins, thus allowing enantioselective binding to be characterized even when a racemic mixture was injected. As a preliminary step, the enantiospecific binding was investigated on columns containing AGP and HSA in various alcohol:buffer mixtures. A pH 7 phosphate buffer was employed as the aqueous part of the mobile phase, while for the organic part, three different alcohols were evaluated.
In the following step, we investigated the effect of changing some other chromatographic conditions on the protein binding. The pH of the aqueous phase influenced the protonation state of both the analyte and the proteins. It should be noted that the pH tolerance of protein-based columns is narrow due to the possible denaturation of proteins. Taking into account the guidelines of the manufacturer, three different pH values were investigated (pH 6, 6.5, and 7) at a 95:5 (v/v%) buffer:IPA eluents ratio [49]. The buffer was uniformly 10 mM phosphate. […] The effect of different buffer constituents was also evaluated. In addition to phosphate buffer, ammonium acetate, ammonium bicarbonate, and sodium citrate were tested and compared under the same conditions.
as §1

[3] = target: T1, human serum albumin (HSA); assay: Displacement chromatography on HSA column with warfarin and ibuprofen as competitors; assay type: binding; conditions: IPA:10 mM pH 7 phosphate buffer 1:99, 25 °C
Experimental: For identification of the binding site of HSA, a displacement chromatography and fluorescence displacement study were performed. In the case of chromatography, to the mobile phase, increasing concentrations of the competitors, warfarin and ibuprofen, that are known to bind to specific binding sites on HSA, Sudlow site I and Sudlow site II, respectively, were added. In the case of the fluorescence displacement study, the fluorescence quenching data of the PPI-HSA system in the presence of warfarin and ibuprofen were investigated.
(Chromatographic parameter: Column temperature: 25 °C,
mobile phase: IPA : 10 mM pH 7 sodium phosphate buffer 1:99, flow rate: 0.7 mL/min, detection

For COc1ccc2[nH]c([S+]([O-])Cc3ncc(C)c(OC)c3C)nc2c1 (centres unmarked) [Omeprazole, omeprazole], the “k1 retention factor (first-eluting enantiomer)” value (“k1 retention factor” below) ([1]; 2.5% IPA) was 13.24, the “k2 retention factor (second-eluting enantiomer)” value (“k2 retention factor” for short) ([1]; 2.5% IPA) was 16.18 and the “k1 retention factor” value ([1]; 5% EtOH) was 12.69. For the same compound, the “k2 retention factor” value ([1]; 5% EtOH) was 15.14, the “k1 retention factor” value ([1]; 5% IPA) was 5.46 and the “k2 retention factor” value ([1]; 5% IPA) was 5.46. The “k1 retention factor” value ([1]; 5% MeOH) was 25.74, the “k2 retention factor” value ([1]; 5% MeOH) was 37.33 and the “k1 retention factor” value ([1]; 7.5% EtOH) was 6.57. For the same compound, the “k2 retention factor” value ([1]; 7.5% EtOH) was 7.20, the “k1 retention factor” value ([1]; 7.5% IPA) was 2.88 and the “k2 retention factor” value ([1]; 7.5% IPA) was 2.88. For the same compound, the “k1 retention factor” value ([1]; 7.5% MeOH) was 15.56, the “k2 retention factor” value ([1]; 7.5% MeOH) was 21.41 and the “k1 retention factor” value ([1]; 10% EtOH) was 4.02. For the same compound, the “k2 retention factor” value ([1]; 10% EtOH) was 4.02, the “k1 retention factor” value ([1]; 10% IPA) was 1.87 and the “k2 retention factor” value ([1]; 10% IPA) was 1.87. For the same compound, the “k1 retention factor” value ([1]; 10% MeOH) was 9.95, the “k2 retention factor” value ([1]; 10% MeOH) was 13.05 and the “k1 retention factor” value ([1]; 12.5% IPA) was 1.33. The “k2 retention factor” value ([1]; 12.5% IPA) was 1.33, the “k1 retention factor” value ([1]; 15% EtOH) was 1.81 and the “k2 retention factor” value ([1]; 15% EtOH) was 1.81. The “k1 retention factor” value ([1]; 15% IPA) was 1.01, the “k2 retention factor” value ([1]; 15% IPA) was 1.01 and the “k1 retention factor” value ([1]; 15% MeOH) was 6.70. The “k2 retention factor” value ([1]; 15% MeOH) was 8.43, the “k1 retention factor” value ([2]; 1% EtOH) was 9.89 and the “k2 retention factor” value ([2]; 1% EtOH) was 9.89. For the same compound, the “k1 retention factor” value ([2]; 1% IPA) was 9.53, the “k2 retention factor” value ([2]; 1% IPA) was 9.53 and the “k1 retention factor” value ([2]; 1% MeOH) was 7.79. The “k2 retention factor” value ([2]; 1% MeOH) was 7.79, the “k1 retention factor” value ([2]; 2.5% EtOH) was 5.53 and the “k2 retention factor” value ([2]; 2.5% EtOH) was 5.53. The “k1 retention factor” value ([2]; 2.5% IPA) was 8.66, the “k2 retention factor” value ([2]; 2.5% IPA) was 8.66 and the “k1 retention factor” value ([2]; 2.5% MeOH) was 6.37. For the same compound, the “k2 retention factor” value ([2]; 2.5% MeOH) was 6.37, the “k1 retention factor” value ([2]; 5% EtOH) was 3.68 and the “k2 retention factor” value ([2]; 5% EtOH) was 3.68. The “k1 retention factor” value ([2]; 5% IPA) was 4.34, the “k2 retention factor” value ([2]; 5% IPA) was 4.34 and the “k1 retention factor” value ([2]; 5% MeOH) was 4.95. For the same compound, the “k2 retention factor” value ([2]; 5% MeOH) was 4.95, the “k1 retention factor” value ([2]; 7.5% EtOH) was 2.61 and the “k2 retention factor” value ([2]; 7.5% EtOH) was 2.61. For the same compound, the “k1 retention factor” value ([2]; 7.5% IPA) was 2.82, the “k2 retention factor” value ([2]; 7.5% IPA) was 2.82 and the “k1 retention factor” value ([2]; 7.5% MeOH) was 3.82. For the same compound, the “k2 retention factor” value ([2]; 7.5% MeOH) was 3.82, the “k1 retention factor” value ([2]; 10% EtOH) was 1.97 and the “k2 retention factor” value ([2]; 10% EtOH) was 1.97. For the same compound, the “k1 retention factor” value ([2]; 10% IPA) was 2.03, the “k2 retention factor” value ([2]; 10% IPA) was 2.03 and the “k1 retention factor” value ([2]; 10% MeOH) was 2.97. The “k2 retention factor” value ([2]; 10% MeOH) was 2.97, the “k1 retention factor” value ([2]; 12.5% IPA) was 1.50 and the “k2 retention factor” value ([2]; 12.5% IPA) was 1.50. The k retention factor ([3]; ibuprofen 0 mM) was 9.53, the k retention factor ([3]; ibuprofen 0.01 mM) was 7.96 and the k retention factor ([3]; ibuprofen 0.05 mM) was 6.31. For the same compound, the k retention factor ([3]; ibuprofen 0.1 mM) was 5.22, the k retention factor ([3]; warfarin 0 mM) was 9.53 and the k retention factor ([3]; warfarin 0.01 mM) was 8.57. For the same compound, the k retention factor ([3]; warfarin 0.05 mM) was 7.71 and the k retention factor ([3]; warfarin 0.1 mM) was 6.98.
With Cc1c(OCC(F)(F)F)ccnc1C[S@+]([O-])c1nc2ccccc2[nH]1 [S-lansoprazole] the “Affinity to HSA compared to the antipode” value ([2]; based on the elution order of enantiomers on the HSA column) was “higher affinity”, the k retention factor ([3]; ibuprofen 0 mM) was 11.17 and the k retention factor ([3]; ibuprofen 0.01 mM) was 9.81. For the same compound, the k retention factor ([3]; ibuprofen 0.05 mM) was 8.51, the k retention factor ([3]; ibuprofen 0.1 mM) was 7.60 and the k retention factor ([3]; warfarin 0 mM) was 11.17. It also gave a k retention factor ([3]; warfarin 0.01 mM) of 9.03, a k retention factor ([3]; warfarin 0.05 mM) of 8.13 and a k retention factor ([3]; warfarin 0.1 mM) of 7.44.
